For 8 compounds, GI50 and TGI results are on record in PubChem BioAssay (NCI).

Each structure is given as a SMILES string. “And” between values parts separate entries of the source, which are not always exact repeats. Equal entries are not always repeated.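 A five-concentration, 48-hour dose response in 96-well plates underlies each endpoint, interpolated linearly between surrounding concentrations. GI50: concentration for 50% inhibition of growth. TGI: total growth inhibition.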

Test systems include COLO 205 colon; HCC-2998 colon; HCT-116 colon; HL-60(TB) leukemia; M14 melanoma; MDA-MB-231 breast; NCI-H23 lung; OVCAR-5 ovarian; SF-268 CNS; SW-620 colon.
What all share (experiment): NCI anticancer screen, dose series, 48 h

As for `Cn1nc(-c2ccc(Cl)cc2)nc2c(=O)n(C)c(=O)nc1-2`, the GI50 with COLO 205 colon is 0.491 µM; in the assay with HCC-2998 colon, 1.18 µM; in the assay with HCT-116 colon, 0.32 µM; in the assay on HL-60(TB) leukemia, 1.11 µM; in the assay on M14 melanoma, 0.75 µM; in the assay on MDA-MB-231 breast it was 1.28 µM. For the same compound, the GI50 with NCI-H23 lung was 1.18 µM; in the assay with OVCAR-5 ovarian it was 0.949 µM; in the assay on SF-268 CNS, 1.8 µM; with SW-620 colon, 1.4 µM. The TGI in the assay with COLO 205 colon is 1.93 µM; in the assay with HCC-2998 colon it was 3.83 µM; in the assay with HCT-116 colon, 1.44 µM; in the assay on HL-60(TB) leukemia it was 3.69 µM; in the assay with M14 melanoma, 1.41 µM; in the assay on MDA-MB-231 breast, 7.34 µM. In addition, the TGI turned out to be 3.16 µM with NCI-H23 lung, 1.77 µM in the assay on OVCAR-5 ovarian, 6.58 µM in the assay on SF-268 CNS and 6.46 µM in the assay on SW-620 colon.

For `S=c1[nH]nc(Cc2ccccc2)c(=S)[nH]1`, the TGI is greater than 100 µM in the assay with COLO 205 colon; greater than 71.8 µM in the assay on HCC-2998 colon; greater than 100 µM with HCT-116 colon; greater than 100 µM with HL-60(TB) leukemia; greater than 100 µM with M14 melanoma; greater than 100 µM in the assay with MDA-MB-231 breast. Further, the TGI was greater than 100 µM in the assay with NCI-H23 lung, greater than 100 µM with OVCAR-5 ovarian, greater than 21.3 µM with SF-268 CNS and greater than 100 µM with SW-620 colon.

Consider `COc1cccc(-c2nn(-c3ccccc3)cc2-c2ccnc(NCCNC(=O)Nc3cccc(C(F)(F)F)c3)c2)c1`, for which the GI50 in the assay with COLO 205 colon is 1.88 µM; with HCC-2998 colon it was 1.72 µM; in the assay with HCT-116 colon it was 2.88 µM; with HL-60(TB) leukemia, 1.54 µM; in the assay with M14 melanoma, 2.79 µM; in the assay with MDA-MB-231 breast, 1.97 µM. The GI50 with NCI-H23 lung is 1.86 µM; in the assay with OVCAR-5 ovarian, 1.51 µM; in the assay on SF-268 CNS, 2 µM; in the assay with SW-620 colon it was 1.91 µM. Moreover, the TGI in the assay on COLO 205 colon stood at 3.78 µM; with HCC-2998 colon, 3.26 µM; in the assay with HCT-116 colon it was 11.8 µM; in the assay on HL-60(TB) leukemia it was 4.23 µM; in the assay with M14 melanoma it was 10.6 µM; in the assay on MDA-MB-231 breast, 4.58 µM. Also, the TGI worked out at 4.15 µM with NCI-H23 lung, 3.63 µM in the assay on OVCAR-5 ovarian, 4.49 µM in the assay with SF-268 CNS and 3.81 µM in the assay with SW-620 colon.

On to `Cc1ccc(C(NC(=O)c2ccccc2)c2ccc3cccnc3c2O)cc1` (stereo not given), for which the GI50 is 0.44 µM in the assay with COLO 205 colon; 0.331 µM in the assay on HCC-2998 colon; 0.303 µM with HCT-116 colon; 0.288 µM in the assay on HL-60(TB) leukemia; 0.244 µM in the assay with M14 melanoma; 0.315 µM in the assay with MDA-MB-231 breast. The GI50 in the assay on NCI-H23 lung was 0.417 µM; with OVCAR-5 ovarian, 0.611 µM; in the assay with SF-268 CNS it was 0.266 µM; with SW-620 colon, 0.431 µM. Besides, the TGI in the assay on COLO 205 colon amounted to 18.5 µM; in the assay on HCC-2998 colon, 18.5 µM; in the assay on HCT-116 colon, 13.8 µM; in the assay with HL-60(TB) leukemia it was 1 µM; with M14 melanoma, 2.38 µM; in the assay with MDA-MB-231 breast, 22.4 µM. Further, the TGI in the assay on NCI-H23 lung is greater than 32.5 µM; in the assay with OVCAR-5 ovarian, greater than 70.4 µM; in the assay with SF-268 CNS, greater than 48.4 µM; in the assay with SW-620 colon, greater than 43.5 µM.

Take `COc1ccc(C(c2ccc(OCCN(C)C)cc2)c2cc3ccccc3c3ccccc23)cc1` (stereo not given): the GI50 in the assay on COLO 205 colon was 1.77 µM; with HCC-2998 colon, 1.8 µM; with HCT-116 colon, 1.68 µM; with HL-60(TB) leukemia, 1.89 µM; with M14 melanoma, 1.73 µM; with MDA-MB-231 breast, 1.68 µM. For the same compound, the GI50 with NCI-H23 lung was 1.83 µM; in the assay on OVCAR-5 ovarian, 1.56 µM; in the assay with SF-268 CNS, 1.71 µM; in the assay with SW-620 colon it was 1.69 µM. The TGI came out at 3.47 µM in the assay with COLO 205 colon; 3.34 µM with HCC-2998 colon; 3.14 µM in the assay with HCT-116 colon; 3.75 µM with HL-60(TB) leukemia; 3.25 µM with M14 melanoma; 3.22 µM in the assay on MDA-MB-231 breast. Further, the TGI in the assay on NCI-H23 lung was found to be 3.8 µM; with OVCAR-5 ovarian it was 3.27 µM; in the assay with SF-268 CNS, 3.26 µM; in the assay with SW-620 colon, 3.31 µM.

On to `CN(Cc1cccc(F)c1)c1ccc(CO)c(Cl)c1`, for which the GI50 in the assay on COLO 205 colon was 5.46 µM; in the assay with HCC-2998 colon, 13.2 µM; in the assay on HCT-116 colon, 0.392 µM; in the assay with HL-60(TB) leukemia it was 22 µM; with M14 melanoma it was 20.4 µM; in the assay on MDA-MB-231 breast, 24.7 µM. The GI50 is 13.3 µM in the assay on NCI-H23 lung, 0.41 µM in the assay on OVCAR-5 ovarian, 34.4 µM in the assay on SF-268 CNS and 5.13 µM in the assay on SW-620 colon. In addition, the TGI in the assay with COLO 205 colon is 19.3 µM; in the assay with HCC-2998 colon it was 42.5 µM; in the assay with HCT-116 colon it was 13.7 µM; in the assay with HL-60(TB) leukemia it was greater than 77.2 µM; in the assay on M14 melanoma, 83 µM; in the assay on MDA-MB-231 breast it was greater than 100 µM. Besides, the TGI in the assay on NCI-H23 lung was greater than 92.6 µM; with OVCAR-5 ovarian it was 2.61 µM; in the assay with SF-268 CNS, greater than 100 µM; in the assay on SW-620 colon, greater than 100 µM.

Take `CC1=C(/C=C/C(C)=C/C=C/C(C)=C/C=N/NC(=S)NC(=S)N/N=C/C=C(C)/C=C/C=C(C)/C=C/C2=C(C)CCCC2(C)C)C(C)(C)CCC1`: the GI50 was 1.46 µM and 0.903 µM with COLO 205 colon; 6.73 µM and 4.07 µM with HCC-2998 colon; 1.91 µM and 0.916 µM in the assay with HCT-116 colon; 1.77 µM and 1 µM with HL-60(TB) leukemia; 1.24 µM and 0.918 µM in the assay on M14 melanoma; 3.99 µM and 3.67 µM with MDA-MB-231 breast. For the same compound, the GI50 is 1.76 µM and 1.17 µM in the assay on NCI-H23 lung; 3.49 µM and 2.84 µM with OVCAR-5 ovarian; 5.38 µM and 2.47 µM with SF-268 CNS; 1.44 µM and 0.86 µM in the assay with SW-620 colon. The TGI is 5.14 µM and 1.71 µM with COLO 205 colon; 13.5 µM and 11.8 µM in the assay with HCC-2998 colon; 8.4 µM and 2.23 µM in the assay on HCT-116 colon; 9.22 µM and 4.3 µM with HL-60(TB) leukemia; 3.73 µM and 1.74 µM in the assay on M14 melanoma; 11 µM and 10.6 µM with MDA-MB-231 breast. Also, the TGI was 7.28 µM and 4.37 µM in the assay on NCI-H23 lung; 9.72 µM and 8.04 µM in the assay on OVCAR-5 ovarian; 11.9 µM and 9.11 µM with SF-268 CNS; 5.42 µM and 1.74 µM in the assay on SW-620 colon.

In the case of `COC1=C(C)C(=O)c2c(c(CCCl)c3n2CCC3O)C1=O` (stereo not given), the GI50 with COLO 205 colon was 0.203 µM; in the assay on HCC-2998 colon, 0.348 µM; with HCT-116 colon, 1.53 µM; with HL-60(TB) leukemia it was 3.34 µM; in the assay with M14 melanoma, 0.264 µM; in the assay with MDA-MB-231 breast, 21.8 µM. In addition, the GI50 is 0.133 µM in the assay on NCI-H23 lung, 0.411 µM in the assay on OVCAR-5 ovarian, 0.533 µM in the assay with SF-268 CNS and 1.09 µM with SW-620 colon. For the same compound, the TGI in the assay with COLO 205 colon is 0.72 µM; in the assay with HCC-2998 colon, 1.57 µM; with HCT-116 colon, greater than 100 µM; with HL-60(TB) leukemia, 30.4 µM; with M14 melanoma, 1.21 µM; with MDA-MB-231 breast it was 83 µM. Further, the TGI came to 0.799 µM with NCI-H23 lung, 7.72 µM in the assay with OVCAR-5 ovarian, 20 µM with SF-268 CNS and 15.8 µM with SW-620 colon.
